According to patent US20080051284A1, “Fungicidal Mixtures for Controlling Rice Pathogens” (BASF AKTIENGESELLSCHAFT, priority 2003, published 2008):

System: Corticium sasakii
Test: Activity against sheath blight on rice caused by Corticium sasakii (protective spray, rice plants cultivar Tai-Nong 67)
Assay type: in vivo
Settings: individual active compound, 11 days after infection
Protocol: The active compounds, separately or jointly, were prepared as a stock solution with 0.25% by weight of active compound in acetone or DMSO. 1% by weight of the emulsifier Uniperol® EL (wetting agent having emulsifying and dispersing action based on ethoxylated alkylphenols) was added to this solution, and the solution was diluted with water to the desired concentration.
Use Example—Activity Against Sheath Blight on Rice Caused by Corticium sasakii
Pots of rice plants of the cultivar “Tai-Nong 67” were sprayed to runoff point with an aqueous suspension having the concentration of active compound stated below. The next day, oat grains infected with Corticium sasakii were placed into the pots (in each case 5 grains per pot). The plants were then placed in a chamber at 26° C. and maximum atmospheric humidity. After 11 days, the sheath blight on the untreated but infected control plants had developed to such an extent that the infection could be determined visually in %.
Evaluation is carried out by determining the infected leaf areas in percent. These percentages were converted into efficacies.
The efficacy (E) is calculated as follows using Abbot's formula:
E=(1−α/β)·100 • α corresponds to the fungicidal infection of the treated plants in % and • β corresponds to the fungicidal infection of the untreated (control) plants in %
An efficacy of 0 means that the infection level of the treated plants corresponds to that of the untreated control plants; an efficacy of 100 means that the treated plants are not infected.
The expected efficacies of the mixtures of active compounds are determined using Colby's formula [R. S. Colby, Weeds 15, 20-22 (1967)] and compared with the observed efficacies.
E=x+y−x·y/100 • E expected efficacy, expressed in % of the untreated control, when using the mixture of the active compounds A and B at the concentrations a and b • x efficacy, expressed in % of the untreated control, when using active compound A at the concentration a • y efficacy, expressed in % of the untreated control, when using active compound B at the concentration b

Compound	Efficacy in % of the untreated control (1 ppm in the spray liquor)	Efficacy in % of the untreated control (4 ppm in the spray liquor)	Efficacy in % of the untreated control (16 ppm in the spray liquor)
N#Cc1c(Cl)c(Cl)c(Cl)c(C#N)c1Cl [II, 2,4,5,6-tetrachloroisophthalonitrile]	0%	0%	0%
CC(Nc1c(-c2c(F)cc(F)cc2F)c(Cl)nc2ncnn12)C(F)(F)F (stereo not drawn) [B]	–	56%	–
CC1CCN(c2c(-c3c(F)cc(F)cc3F)c(Cl)nc3ncnn23)CC1 [I, 5-chloro-7-(4-methylpiperidin-1-yl)-6-(2,4,6-trifluorophenyl)-[1,2,4]tri-azolo[1,5-a]pyrimidine]	–	34%	–
CC1CCN(c2c(-c3c(F)cccc3Cl)c(Cl)nc3ncnn23)CC1 [A]	–	12%	–
